Reference: patent US20220265629A1, “TREATMENT OF SYSTOLIC DYSFUNCTION AND HEART FAILURE WITH REDUCED EJECTION FRACTION WITH THE COMPOUND (R)-4-(1-((3-(DIFLUOROMETHYL)-1-METHYL-1H-PYRAZOL-4-YL)SULFONYL)-1-FLUOROETHYL)-N-(ISOXAZOL-3-YL)PIPERIDINE-1-CARBOXAMIDE” (MyoKardia, Inc., priority 2019, published 2022)
Like-named read-outs stand apart in the source and are kept apart here. Marks after values point to notes of the source that are not given here.

Key:
[1] = test system: patients with stable HFrEF; test: HFrEF study Part 2 (MAD Cohorts A-D): TTE pharmacodynamics by plasma concentration group; type: in vivo, human
Protocol: PD assessment was done by transthoracic echocardiography as described in Example 1 above. TTE evaluations of LVSV (derived from LVOT-VTI), LVEF, LVFS, SET, and other parameters were PD assessments at predetermined time points. The patients were on bed rest for 10 minutes before the TTEs were obtained. In Part 2 (MAD), TTEs were usually obtained before the morning close and/or at 7 hours postclose (i.e., close to the anticipated peak effect based on the PK profile from the healthy volunteer studies).
The pharmacodynamic effects of Compound I on echocardiographic markers of cardiac structure and function were analyzed by Compound I plasma concentration groups: <2000 ng/mL (lower concentration group), 2000-3500 ng/mL (medium concentration group) and ≥3500 ng/mL (higher concentration group) (Table 16) and with PK-PD scatterplots (FIGS. 9A-9C). The medium concentration group corresponds to steady-state plasma concentrations achieved with 50 mg BID (Table 17). A total of 526 echocardiograms were performed from which the PK-PD analysis was derived.

[2] = Pharmacokinetics in beagle dogs (single doses); type: in vivo
Protocol: The pharmacokinetics of Compound I have been evaluated in multiple dog studies. […] At a single dose<3 mg/kg, the observed oral bioavailability was approximately 100%. This nonlinear pharmacokinetics of Compound I was also observed in humans. […] In order to delineate the underlying mechanism responsible for the nonlinear pharmacokinetics, physiologically-based absorption models of Compound I for beagle dogs and healthy volunteers were developed and used to assess the effect of particle size on the in vivo dissolution, absorption, bioavailability, and systemic exposure of Compound I.
Data used for Compound I physiologically-based pharmacokinetic (PBPK) model development and verification were obtained from in vivo nonclinical studies in dogs (FIG. 13), a clinical study in healthy volunteers (Example 1), and in vitro experiments (Table 20).

[3] = MAD cohorts, plasma concentration group <2000 ng/mL (n = 30), LS mean difference vs placebo
[4] = MAD cohorts, plasma concentration group ≥3500 ng/mL (n = 13), LS mean difference vs placebo
[5] = higher concentration group (≥3500 ng/mL)
[6] = medium concentration group (2000-3500 ng/mL)

Cn1cc(S(=O)(=O)[C@@](C)(F)C2CCN(C(=O)Nc3ccon3)CC2)c(C(F)F)n1 [Compound I, (R)-4-(1-((3-(difluoromethyl)-1-methyl-1H-pyrazol-4-yl)sulfonyl)-1-fluoroethyl)-N-(isoxazol-3-yl)piperidine-1-carboxamide]
DBP (supine), mean change from baseline (placebo-corrected) [1, 3]: −0.9 mmHg
E-wave peak, mean change from baseline (placebo-corrected) [1, 3]: -3.8 cm/s
E/A ratio, mean change from baseline (placebo-corrected) [1, 3]: −0.1**
E/e′ (lateral), mean change from baseline (placebo-corrected) [1, 3]: −0.8
Heart rate (supine), mean change from baseline (placebo-corrected) [1, 3]: 0.0 bpm
IVRT, mean change from baseline (placebo-corrected) [1, 3]: 2.7 ms
LVEDD, mean change from baseline (placebo-corrected) [1, 3]: −0.5 mm
LVEDVi, mean change from baseline (placebo-corrected) [1, 3]: −1.1 mL/m^2
LVEF, mean change from baseline (placebo-corrected) [1, 3]: −0.3%
LVESD, mean change from baseline (placebo-corrected) [1, 3]: −0.8 mm
LVESVi, mean change from baseline (placebo-corrected) [1, 3]: −0.9 mL/m^2
LVFS, mean change from baseline (placebo-corrected) [1, 3]: 0.5%
LVGCS, mean change from baseline (placebo-corrected) [1, 3]: −0.4%
LVGLS, mean change from baseline (placebo-corrected) [1, 3]: −0.3%
LVSV, mean change from baseline (placebo-corrected) [1, 3]: 3.1 mL
SBP (supine), mean change from baseline (placebo-corrected) [1, 3]: −1.5 mmHg
SET, mean change from baseline (placebo-corrected) [1, 3]: 15** ms
Tei index, mean change from baseline (placebo-corrected) [1, 3]: −0.05
e′ (lateral), mean change from baseline (placebo-corrected) [1, 3]: −0.2
s′ (lateral), mean change from baseline (placebo-corrected) [1, 3]: 0.2
A-wave duration, mean change from baseline (placebo-corrected) [1, 4]: 11.9** msec
A-wave peak, mean change from baseline (placebo-corrected) [1, 4]: 4.3 cm/s
DBP (supine), mean change from baseline (placebo-corrected) [1, 4]: −1.4 mmHg
E-wave peak, mean change from baseline (placebo-corrected) [1, 4]: −10** cm/s
E/A ratio, mean change from baseline (placebo-corrected) [1, 4]: −0.2**
E/e′ (lateral), mean change from baseline (placebo-corrected) [1, 4]: 0.3
Heart rate (supine), mean change from baseline (placebo-corrected) [1, 4]: −1.1 bpm
IVRT, mean change from baseline (placebo-corrected) [1, 4]: 27.8** msec
LVEDD, mean change from baseline (placebo-corrected) [1, 4]: −1.8** mm
LVEDVi, mean change from baseline (placebo-corrected) [1, 4]: −5.2* mL/m^2
LVEF, mean change from baseline (placebo-corrected) [1, 4]: 2.3%
LVESD, mean change from baseline (placebo-corrected) [1, 4]: −1.8** mm
LVESVi, mean change from baseline (placebo-corrected) [1, 4]: −4.6** mL/m^2
LVFS, mean change from baseline (placebo-corrected) [1, 4]: 0.5%
LVGCS, mean change from baseline (placebo-corrected) [1, 4]: −3.3** %
LVGLS, mean change from baseline (placebo-corrected) [1, 4]: −1.0* %
LVSV, mean change from baseline (placebo-corrected) [1, 4]: 5.7* mL
SBP (supine), mean change from baseline (placebo-corrected) [1, 4]: −5.2* mmHg
SET, mean change from baseline (placebo-corrected) [1, 4]: 48** ms
Tei index, mean change from baseline (placebo-corrected) [1, 4]: −0.02
e′ (lateral), mean change from baseline (placebo-corrected) [1, 4]: −1.0**
s′ (lateral), mean change from baseline (placebo-corrected) [1, 4]: 0.3
SET increase ([1]; SAD and MAD cohorts): < 50 ms
increase in SV (forward flow) ([1]; SAD and MAD cohorts, exposure-related): 8 to 9 mL
Myocardial performance (Tei index) improved ([1]; SAD and MAD cohorts, concentrations ≥2000 ng/mL): approximately 10%
LV longitudinal as well as circumferential strain, mean placebo-corrected decrease [1, 5]: −3.3%
LVESD, mean placebo-corrected decrease [1, 5]: −1.8 mm
SET, mean placebo-corrected increase [1, 5]: 48 ms
peak E wave, decrease [1, 5]: -10 cm/s
stroke volume, mean placebo-corrected increase [1, 5]: 5.7 mL
LV longitudinal as well as circumferential strain, mean placebo-corrected decrease [1, 6]: −2.1%
LVESD, mean placebo-corrected decrease [1, 6]: −1.3 mm
SET, mean placebo-corrected increase [1, 6]: 36 ms
stroke volume, mean placebo-corrected increase [1, 6]: 7.8 mL
filling pressures (E/e′) ([1]; medium or higher concentration group): No change
bioavailability ([2]; beagle, dog, plasma, po, single dose <3 mg/kg, read-out: oral bioavailability): ~100%
bioavailability ([2]; beagle, dog, plasma, oral 10 mg/kg, micronized (Dv50=3.2 μm), read-out: bioavailability): > 100%
bioavailability ([2]; beagle, dog, plasma, oral 100 mg, Dv50=46 μm, read-out: bioavailability): ~40%
Vd ([2]; beagle, plasma, 1-compartmental model analysis of in vivo data in dog): 1.51 L/kg
clearance ([2]; beagle, plasma, 1-compartmental model analysis of in vivo data in dog, read-out: CL (Dog) (converted)): 1.58 mL/min/kg
bioavailability ([2]; single oral dose 25 mg (3 mg/kg) or lower, regardless of particle size): approximately 100%
